# Source: US8691777B2, “Combination therapy” (Emory University, priority 2011, dated 2014)
# Key:
# PDGFR-β = PDGFR-β (Mus musculus, UniProt P05622); assay: Western blot of PDGFR-β and phospho-PDGFR-β in Tsc2ang1 cells; conditions: imatinib 10 μm, rapamycin 10 nM, vs DMSO control
# Method: The impact of imatinib (10 μm), rapamycin (10 nM), and a combination of rapamycin and imatinib on the phosphorylated PDGFR-β signaling pathway was tested in Tsc2ang1cells.
# Lysates of Tsc2ang1 cells treated with vehicle or indicated drugs were prepared in NP-40 lysis buffer (1% NP-40, 150 mmol/L NaCl, 10% glycerol, 20 mmol/L HEPES, 1 mmol/L phenylmethylsulfonyl fluoride, 2.5 mmol/L EDTA, 100 μmol/L Na3VO4, and 1% aprotinin) Protein concentration in cleared lysates was determined using an Eppendorf BioPhotometer. Samples were resolved using SDS-PAGE (National Diagnostics) and transferred to nitrocellulose membranes. The membranes were blocked with 5% nonfat dry milk in 10 mmol/L Tris/0.1% Tween 20/100 mmol/L NaCl and incubated with primary antibodies followed by horseradish peroxidase-conjugated secondary antibody. The immunoreactive bands were visualized by enhanced chemiluminescence (Amersham Biosciences). The antibodies used were: Phospho-PDGFR-β antibody (Tyr 1021) (Cell signaling Laboratories); Phospho-PDGFR-β antibody (Tyr 1009) (Cell Signaling Laboratories); Aurora kinase A antibody (4718) (Cell signaling Laboratories), Aurorakinase B (3094) antibody (Cell signaling Laboratories) monoclonal anti-β-tubulin antibody (Sigma) was used as a loading control.
# tsc2ang1 cells = assay: proliferation assay with tsc2ang1 cells (Coulter counter); format: cell-based, murine; conditions: rapamycin 5 nM, imatinib 10 μM, 24 hours, vs DMSO control
# Method: 10^4 tsc2ang1 cells per well were plated in 24-well dishes in triplicate. The next day, fresh medium containing the compounds or vehicle controls was added. Cells were incubated at 37° C. Tsc2ang1 (ATCC CRL 2620) is a murine cell line derived from a cutaneous sarcoma that arose in the extremity of a mouse heterozygous for tsc2; these mice develop cutaneous sarcomas at a frequency of about 10 to 15%. The cells were cultured in complete DMEM medium supplemented with 10% FBS (Sigma Aldrich, St Louis, Mo.). […] Cells were treated with vehicle control (DMSO), rapamycin (5 nM), imatinib (10 μM) or imatinib (10 μM)+rapamycin (5 nM) (shown along X-axis) for 24 h and counted using a Coulter counter. The Y-axis represents cell number with error bars representing the SEM.
# MMP-2 = assay: gelatin zymography of conditioned media of tsc2ang1 cells; format: cell-based, murine; conditions: 24 hours, vs DMSO-treated control
# Method: The presence and activity of specific MMP species were detected using gelatin zymography. An aliquot of each conditioned media sample was centrifuged at 4,000 rpm for 1-5 min at 4° C. and supernatant was used. A buffer of 4% SDS, 0.15 mol/L Tris (pH 6.8), 20% glycerol and 0.5% (w/v) bromophenol blue was added to the conditioned media sample. […] Gels were then incubated over night at 37° C. in substrate buffer containing 50 mmol/L Tris-HCL (pH 8), 5 mmol/L CaCl2 and 0.02% NaN3. After incubation, gels were stained for 30 min in 0.5% Coomassie Blue R-250 dissolved in acetic acid, isopropyl alcohol and water (1:3:6); destained in acetic acid, ethanol and water (1:3:6). The finalized gel was scored for the presence/absence MMP activity by a blinded evaluator and photographed.
# Sequence of PDGFR-β (P05622 32-1098): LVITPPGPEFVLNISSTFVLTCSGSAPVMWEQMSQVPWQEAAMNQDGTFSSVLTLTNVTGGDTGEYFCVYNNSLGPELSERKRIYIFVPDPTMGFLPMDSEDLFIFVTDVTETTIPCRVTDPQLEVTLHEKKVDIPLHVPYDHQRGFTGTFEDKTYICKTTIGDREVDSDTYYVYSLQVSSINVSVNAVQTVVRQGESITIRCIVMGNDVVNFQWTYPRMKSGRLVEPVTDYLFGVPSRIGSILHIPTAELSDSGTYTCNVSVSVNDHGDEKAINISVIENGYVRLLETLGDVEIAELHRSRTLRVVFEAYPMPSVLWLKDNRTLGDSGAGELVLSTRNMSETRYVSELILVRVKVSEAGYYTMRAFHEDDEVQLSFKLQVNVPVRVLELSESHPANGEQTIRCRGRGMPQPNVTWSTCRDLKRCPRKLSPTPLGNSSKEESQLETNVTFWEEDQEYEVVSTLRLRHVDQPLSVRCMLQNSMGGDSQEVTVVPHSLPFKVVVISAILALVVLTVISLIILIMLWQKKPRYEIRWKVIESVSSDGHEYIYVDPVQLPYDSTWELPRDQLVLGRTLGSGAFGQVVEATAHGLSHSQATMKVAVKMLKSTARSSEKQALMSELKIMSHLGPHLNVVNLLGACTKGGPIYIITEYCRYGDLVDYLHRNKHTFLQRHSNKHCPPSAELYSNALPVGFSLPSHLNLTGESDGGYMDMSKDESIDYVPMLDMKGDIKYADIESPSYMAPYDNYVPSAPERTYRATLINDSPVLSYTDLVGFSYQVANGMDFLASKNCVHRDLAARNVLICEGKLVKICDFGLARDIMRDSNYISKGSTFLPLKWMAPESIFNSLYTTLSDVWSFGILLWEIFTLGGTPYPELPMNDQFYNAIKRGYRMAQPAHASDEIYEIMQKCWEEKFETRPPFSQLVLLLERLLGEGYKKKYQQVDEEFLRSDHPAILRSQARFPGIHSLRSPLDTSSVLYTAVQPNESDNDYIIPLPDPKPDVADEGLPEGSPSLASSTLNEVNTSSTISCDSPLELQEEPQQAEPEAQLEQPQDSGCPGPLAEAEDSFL
structure (smiles),measurement,setting,value
Cc1ccc(NC(=O)c2ccc(CN3CCN(C)CC3)cc2)cc1Nc1nccc(-c2cccnc2)n1 [imatinib],PDGFR β phosphorylation,PDGFR-β,downregulation of PDGFR β phosphorylation
same,viable cell number,tsc2ang1 cells,decrease in the viable cell numbers
same,MMP-2 gelatinase activity,MMP-2,decrease in the level of MMP-2
